According to PubChem BioAssay (NCI):
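Protocol summary: plate cells (96-well), add compound at 5 concentrations, incubate 48 h, interpolate endpoints linearly. Abbreviation: GI50, concentration required for 50% inhibition of growth. Definition used: TGI = concentration required for complete inhibition of growth.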 Where a SMILES comes first, the peptide text is derived from it. [ ]: non-standard residue; d: D form. Phe(4-NO2) = N[CH](Cc1ccc([N+](=O)[O-])cc1)C(=O)O

Tests used:
Assay in all cases: growth of human tumour cells (NCI), 48 h
SR leukemia = test system: SR leukemia
NCI-H23 lung = test system: NCI-H23 lung
HL-60(TB) leukemia = test system: HL-60(TB) leukemia
SF-539 CNS = test system: SF-539 CNS
SK-MEL-28 melanoma = test system: SK-MEL-28 melanoma
LOX IMVI melanoma = test system: LOX IMVI melanoma
M14 melanoma = test system: M14 melanoma
COLO 205 colon = test system: COLO 205 colon
K-562 leukemia = test system: K-562 leukemia
UO-31 renal = test system: UO-31 renal
T-47D breast = test system: T-47D breast
HOP-92 NSCLC = test system: HOP-92 NSCLC
SK-MEL-2 melanoma = test system: SK-MEL-2 melanoma
MCF7 breast = test system: MCF7 breast
HCC-2998 colon = test system: HCC-2998 colon
IGROV1 ovarian = test system: IGROV1 ovarian
CCRF-CEM leukemia = test system: CCRF-CEM leukemia
NCI/ADR-RES ovarian = test system: NCI/ADR-RES ovarian

Structure (SMILES) | TGI (SR leukemia) [µM] | TGI (NCI-H23 lung) [µM] | TGI (HL-60(TB) leukemia) [µM] | TGI (SF-539 CNS) [µM] | TGI (SK-MEL-28 melanoma) [µM] | TGI (LOX IMVI melanoma) [µM] | TGI (M14 melanoma) [µM] | TGI (COLO 205 colon) [µM] | TGI (K-562 leukemia) [µM] | TGI (UO-31 renal) [µM] | TGI (T-47D breast) [µM] | TGI (HOP-92 NSCLC) [µM] | TGI (SK-MEL-2 melanoma) [µM] | TGI (MCF7 breast) [µM] | TGI (HCC-2998 colon) [µM] | TGI (IGROV1 ovarian) [µM] | TGI (CCRF-CEM leukemia) [µM] | TGI (NCI/ADR-RES ovarian) [µM] | GI50 (SR leukemia) [µM] | GI50 (CCRF-CEM leukemia) [µM]
O=C1C=CC(=O)c2c1ccc1c3ccccc3n(-c3ccccc3)c21 | 1.31 | 34.1 | 2.34 | 29.7 | 14.4 | 20.1 | 21.2 | 22.8 | 5.08 | 25.5 | 4.78 | 7.78 | 26.6 | > 100 | 50.6 | 34.5 | 1.94 |  |  | 
O[C@H]1[C@H](O)[C@@H](O)[C@@]2(O)CC[C@@H]1N2 | > 100 | > 100 |  | > 100 | > 100 | > 100 | > 100 | > 100 | > 100 | > 100 | > 100 | > 100 | > 100 | > 100 | > 100 | > 100 | > 100 | > 100 |  | 
CCC1CCN=C(NS(=O)(=O)c2cc(C)c(Cl)cc2S)N1 (stereo unspecified) | > 100 |  | 82.5 | > 100 | > 100 | 53.2 | > 100 | > 100 | > 100 | 82.4 | 98.5 | > 100 | > 100 | > 100 | > 100 | > 100 | 88.1 | > 100 |  | 
COc1cc2c(cc1OCCCOS(C)(=O)=O)N=C[C@@H]1CCCN1C2=O | > 100 | > 100 | > 100 | > 100 | > 100 | > 100 | > 100 | > 100 |  | > 100 | > 100 | > 100 | > 100 | > 100 | > 100 | > 100 | > 100 | > 100 | 62.9 | 52.8
CC(NC(=O)C(Cc1ccc([N+](=O)[O-])cc1)NC(=O)C(N)CCCCN)C(=O)NC(Cc1ccc([N+](=O)[O-])cc1)C(N)=O (stereo unspecified) (H-K[Phe(4-NO2)]A[Phe(4-NO2)]-NH2; configuration not given here) |  | > 100 | > 48.9 | > 83.9 | > 100 | > 100 | > 74.3 | > 100 | > 55.3 | > 66.6 | > 80.8 | 70.5 | > 86.6 | > 100 | > 64.8 | > 100 | > 100 | > 100 |  | 
COc1ccc(OC)c(C2CCc3c(cnc4nc(N)nc(N)c34)C2)c1 (stereo unspecified) | 20.4 |  | 25.9 | 89.1 | 29.4 | 15.5 | 17.3 | 47.3 | 16.1 |  | 39.8 | 26.3 | 31.8 | 24.3 | 44.6 | 17.5 |  | > 100 |  | 
CN(C)CCCNC(=O)CCNC(=O)c1cc(NC(=O)c2cc(NC(=O)c3cc(NC(=O)c4nccn4C)cn3C)cn2C)cn1C |  | > 100 | > 100 | > 100 | > 100 | > 100 | > 100 | > 100 | > 100 | > 100 | 97.4 | > 100 | > 100 | > 100 | > 100 | > 100 | > 100 | > 100 |  | 
CN(C)CCNC(=O)c1cccc2c(NC(CS)C(=O)O)c3ccccc3[n+](C)c12 (stereo unspecified) | > 100 | > 100 |  | > 100 | > 100 | > 100 | > 100 | > 100 | > 100 | > 100 | > 100 |  | > 100 | > 100 | > 100 | > 100 |  | 93.2 |  | 
CNC(=O)NCCN1CC2CCC(CC2)C1 | > 10 | > 10 | > 10 | > 10 | > 10 | > 10 | > 10 | > 10 | > 10 | > 10 | > 10 |  | > 10 | > 10 | > 10 | > 10 | > 10 | > 10 |  | 
Cc1ccc(N=NC(=Nc2ccc(Cl)cc2)c2ccc(N(CCC#N)CCC#N)cc2)cc1 | > 100 | > 100 |  | > 100 | > 100 |  | > 100 | 55.6 | > 100 | > 100 | > 100 | > 100 |  | > 100 | 90.1 | > 100 | > 100 | > 100 |  | 
C=CCN1C[C@H](C)N([C@@H](c2ccc(C(=O)N3CCCCC3)cc2)c2cccc(OC)c2)C[C@H]1C | 35.4 | > 100 | 21.5 | 67.7 |  | > 100 | 34.9 | 30.6 | 60.8 | > 100 | 76 | > 100 | 60.3 | > 100 | 99.5 | > 100 | 70.4 | > 100 |  | 
O=C(SC1=NCCN1)c1cccc2ccccc12 |  | > 100 | 67 | > 100 | > 100 | > 100 | > 100 | > 100 | 73.5 | > 100 | > 100 | > 100 | > 100 | > 100 | > 100 | > 100 | 70.1 | > 100 |  | 
COc1cc(/C=N\c2nc(-c3ccc(NS(=O)(=O)c4ccc(Cl)c(OC)c4)cc3)cs2)ccc1O | > 100 | 88.8 | 74 | > 100 | > 100 | > 100 | > 100 | > 100 | > 100 | > 100 | 59.1 | > 100 | > 100 | 56.2 |  | > 100 | > 100 | > 100 |  | 
CC(=O)Oc1ccc2cc(Oc3ccc(Cl)c(Cl)c3)c(=O)oc2c1 | > 100 | > 100 | > 100 | 46.8 | 79.3 | 59.1 | > 100 |  | 69.6 | 51 | 99.3 | 78.8 |  | 80.6 | 39.6 | > 100 | > 100 |  |  | 
COc1ccc(-c2cc(-c3ccc(O)cc3O)c(C#N)c(=O)[nH]2)cc1 | 53.4 | 71.1 | 65.4 | 34.7 | 33.5 | 31.6 | 35.4 | 31.6 | 77 | 69.6 | > 100 | 31 |  | > 100 |  |  | 56.7 | 46.2 |  | 
N#Cc1ccc(CSC2=C(c3ccc(Cl)cc3)S/C(=C3\SC(SCc4ccc(C#N)cc4)=C(c4ccc(Cl)cc4)S3)S2)cc1 | > 100 | > 100 | > 100 | > 100 | > 100 | > 100 | > 100 | > 100 | > 100 |  | > 100 |  | > 100 | > 100 | > 100 | > 100 | > 100 | > 100 |  | 
CC(Oc1ccccc1Cl)C(=O)NN1C(=O)CC(=O)NC1=S (stereo unspecified) | > 100 | > 100 | > 100 | > 100 | > 100 | > 100 | > 100 | > 100 | > 100 | > 100 | > 100 | > 100 | > 100 | > 100 | > 100 | > 100 |  | > 100 |  | 
C=C(C)[C@@]1(O)CCCC[C@@H]1CC(Sc1ccccc1)Sc1ccccc1 | 34.8 | 29.9 | 78.4 |  | 38.6 | 31.2 | 39.3 | 31 | 44.4 | 31.5 | 29 | 18.9 | 30.1 | 53.9 | 32.4 | 33.6 | > 100 | 34 |  | 
O=C(OCc1ccc([N+](=O)[O-])cc1)N1c2ccccc2[C@@]23O[C@]24CCC[C@H]3C#C/C=C\C#C[C@H]14 |  | > 100 | > 100 | > 100 | > 100 | > 100 | > 100 | > 100 | > 100 | > 100 | > 100 | > 100 | > 100 | > 100 | > 100 | > 100 | > 100 | > 100 |  | 
O=C(CC(C(=O)c1cccs1)c1ccsc1)c1ccccc1 (stereo unspecified) | > 100 | 85.4 |  | > 100 | > 100 | > 100 | > 100 | > 100 |  | > 100 | > 100 | > 100 |  | 99.1 | > 100 | > 100 | > 100 | 80.4 |  | 
O=c1[nH]nc(Cc2ccccc2)n1CCCl | > 100 | > 100 | > 100 | > 100 | > 100 | > 100 | > 100 | > 100 | > 100 | > 100 | > 100 |  | > 100 | > 100 | > 100 | > 100 | > 100 | > 100 |  | 
COc1ccc2nc3c([N+](=O)[O-])ccc(NCCCN(C)C)c3c(NCCCN(C)C)c2c1 | 1.14 | 3.46 | 8.81 |  | 3.42 | 3 | > 10 |  | 5.89 |  | > 10 | > 10 |  | 2.33 | 2.61 | 4.07 | 2.4 |  |  | 
O=C(O)c1nc2ccc(C(F)(F)F)cc2nc1NCc1ccc(Cl)c(Cl)c1 | 36.5 | 32.4 |  | 36.6 | 33.7 | 29.8 | 31.6 | 37.4 | 42.1 | 26.2 | 35.2 | 32.2 | 27.8 | 45.3 | 30.5 | 30.7 | > 100 | 42.7 |  | 
COC(=O)C1=COC(OC2OC(CO)C(O)C(O)C2O)C2C3CN4CCc5c([nH]c6ccccc56)C4(CC12)O3 (stereo unspecified) | > 100 | > 100 | > 100 | > 100 | > 100 | > 100 | > 100 | > 100 | > 100 | > 100 | > 100 |  | > 100 | > 100 |  | > 100 |  | > 100 |  | 
COC(=O)C1=C(OC(=O)c2ccccc2)C(C(=O)OC)[C@@]2(O)[C@@H](C(=O)OC)[C@H](C)C[C@@H]1[C@@H]2C(=O)OC (stereo partly specified) | > 100 | > 100 | > 100 | 34.5 | > 100 | > 100 | > 100 | 41.1 |  | > 100 | > 100 |  | > 100 | > 100 | 89.7 | > 100 | > 100 | 44.8 |  | 
[N-]=[N+]=Nc1c(Cl)c(Cl)nc2ccccc12 | > 100 | > 100 |  | > 100 | > 100 | > 100 | > 100 | > 100 | > 100 | > 100 | > 100 | > 100 | > 100 | > 100 | > 100 | > 100 | > 100 | > 100 |  | 
NNC(=O)CCSc1ccccc1 | > 100 | > 100 | > 100 | > 100 | > 100 | > 100 | > 100 | > 100 | > 100 | > 100 | > 100 |  | > 100 | > 100 | > 100 | > 100 | > 100 | > 100 |  | 
